Source: patent US20030022158A1, “Peptides from the TT virus sequence and monospecific antibodies binding to the TT virus” (priority 1999, published 2003)

Tested on: human IgG antibodies in human serum samples
Assay: EIA of human antibody reactivities to overlapping synthetic peptides of TTV ORF1 and ORF2 (Tables 2 and 3)
Assay type: binding
Settings: for optical density (OD) at 405 nm: serum diluted 1:100, OD over 0.500 considered positive; for human reactivity to peptide (reactive peptides within ORF1): tested human sera; for optical density (OD) at 405 nm, EIA reactivity of human serum sample 1: serum sample 1, negative for TTV DNA by PCR; for optical density (OD) at 405 nm, EIA reactivity of human serum sample 1 / optical density (OD) at 405 nm, EIA reactivity of human serum sample 2 / optical density (OD) at 405 nm, EIA reactivity of human serum sample 3 / optical density (OD) at 405 nm, EIA reactivity of human serum sample 4 / optical density (OD) at 405 nm, EIA reactivity of human serum sample 5 / optical density (OD) at 405 nm, EIA reactivity of human serum sample 6 / optical density (OD) at 405 nm, EIA reactivity of human serum sample 7 / optical density (OD) at 405 nm, EIA reactivity of human serum sample 9 / optical density (OD) at 405 nm, EIA reactivity of human serum sample 11 / optical density (OD) at 405 nm, EIA reactivity of human serum sample 18 / optical density (OD) at 405 nm, EIA reactivity of human serum sample 36 / optical density (OD) at 405 nm, EIA reactivity of human serum sample 48 / optical density (OD) at 405 nm, EIA reactivity of human serum sample 98 / optical density (OD) at 405 nm, EIA reactivity of human serum sample 110 / optical density (OD) at 405 nm, EIA reactivity of human serum sample 155 / optical density (OD) at 405 nm, EIA reactivity of human serum sample 157: serum 1:100, peptide coated 10 μg/ml, OD over 0.500 positive; for optical density (OD) at 405 nm, EIA reactivity of human serum sample 2: serum sample 2, negative for TTV DNA by PCR; for optical density (OD) at 405 nm, EIA reactivity of human serum sample 3: serum sample 3, negative for TTV DNA by PCR; for optical density (OD) at 405 nm, EIA reactivity of human serum sample 4: serum sample 4, negative for TTV DNA by PCR; for optical density (OD) at 405 nm, EIA reactivity of human serum sample 5: serum sample 5, negative for TTV DNA by PCR; for optical density (OD) at 405 nm, EIA reactivity of human serum sample 6: serum sample 6, negative for TTV DNA by PCR; for optical density (OD) at 405 nm, EIA reactivity of human serum sample 7: serum sample 7, negative for TTV DNA by PCR; for optical density (OD) at 405 nm, EIA reactivity of human serum sample 9: serum sample 9, positive for TTV DNA by PCR; for optical density (OD) at 405 nm, EIA reactivity of human serum sample 11: serum sample 11, negative for TTV DNA by PCR; for optical density (OD) at 405 nm, EIA reactivity of human serum sample 18: serum sample 18, positive for TTV DNA by PCR; for optical density (OD) at 405 nm, EIA reactivity of human serum sample 36: serum sample 36, positive for TTV DNA by PCR; for optical density (OD) at 405 nm, EIA reactivity of human serum sample 48: serum sample 48, positive for TTV DNA by PCR; for optical density (OD) at 405 nm, EIA reactivity of human serum sample 98: serum sample 98, positive for TTV DNA by PCR; for optical density (OD) at 405 nm, EIA reactivity of human serum sample 110: serum sample 110, positive for TTV DNA by PCR; for optical density (OD) at 405 nm, EIA reactivity of human serum sample 155: serum sample 155, positive for TTV DNA by PCR; for optical density (OD) at 405 nm, EIA reactivity of human serum sample 157: serum sample 157, positive for TTV DNA by PCR
Text: Overlapping peptides (18 amino acids in length containing an 8 amino acid overlap) corresponding to regions of the ORFI and ORF2 of TTV (TABLE 1; Genebank accession no AB008394) were produced by a multiple peptide synthesizer (Syro, Syntex, Germany) using standard Fmoc chemistry (Sallberg et al., Immunology Letters, 30:59 68 (1991), herein expressly incorporated by reference in its entirety).
The EIAs used to identify which peptides interacted with human sera followed protocols known in the art. (See Zhang et al., J Gen Virol, 78:2735-2746 (1997), herein expressly incorporated by reference in its entirety). Briefly, microplates (Nunc, Denmark) were coated for 48 hours with synthetic peptides at a concentration of 10 μg/ml in 0.05M sodium carbonate buffer pH 9.6. After blocking for 2 hours at room temperature with phosphate buffered saline containing 1% bovine serum albumin, 2% goat serum and 0.05% Tween 20 (dilution buffer) the plates were incubated with human sera diluted 1:100 in dilution buffer. Bound human IgG was detected by incubation with anti-human IgG antibodies conjugated to alkaline phosphatase (Sigma Chemicals, St. Louis, Mo.). The plates were developed by the addition of […] (Sigma) and the optical densities were determined at 405 nm.

[1] = human serum sample 1, negative for TTV DNA by PCR
[2] = human serum sample 2, negative for TTV DNA by PCR
[3] = human serum sample 3, negative for TTV DNA by PCR
[4] = human serum sample 4, negative for TTV DNA by PCR
[5] = human serum sample 5, negative for TTV DNA by PCR
[6] = human serum sample 6, negative for TTV DNA by PCR
[7] = human serum sample 7, negative for TTV DNA by PCR
[8] = human serum sample 9, positive for TTV DNA by PCR
[9] = human serum sample 11, negative for TTV DNA by PCR
[10] = human serum sample 18, positive for TTV DNA by PCR
[11] = human serum sample 36, positive for TTV DNA by PCR
[12] = human serum sample 48, positive for TTV DNA by PCR
[13] = human serum sample 98, positive for TTV DNA by PCR
[14] = human serum sample 110, positive for TTV DNA by PCR
[15] = human serum sample 155, positive for TTV DNA by PCR
[16] = human serum sample 157, positive for TTV DNA by PCR

| Sequence | optical density (OD) at 405 nm [1] [OD] | optical density (OD) at 405 nm [2] [OD] | optical density (OD) at 405 nm [3] [OD] | optical density (OD) at 405 nm [4] [OD] | optical density (OD) at 405 nm [5] [OD] | optical density (OD) at 405 nm [6] [OD] | optical density (OD) at 405 nm [7] [OD] | optical density (OD) at 405 nm [8] [OD] | optical density (OD) at 405 nm [9] [OD] | optical density (OD) at 405 nm [10] [OD] | optical density (OD) at 405 nm [11] [OD] | optical density (OD) at 405 nm [12] [OD] | optical density (OD) at 405 nm [13] [OD] | optical density (OD) at 405 nm [14] [OD] | optical density (OD) at 405 nm [15] [OD] | optical density (OD) at 405 nm [16] [OD] | human reactivity to peptide (reactive peptides within ORF1) (EIA) | optical density (OD) at 405 nm, EIA reactivity of human serum sample 1 [OD] | optical density (OD) at 405 nm, EIA reactivity of human serum sample 2 [OD] | optical density (OD) at 405 nm, EIA reactivity of human serum sample 3 [OD] | further results |
| --- | --- | --- | --- | --- | --- | --- | --- | --- | --- | --- | --- | --- | --- | --- | --- | --- | --- | --- | --- | --- | --- |
| QKESLLFPPVKLLRRVP (Peptide Immunogen) [compound 69, overlapping synthetic peptide of TTV ORF1] | 0.10 | 0.15 | 0.16 | 0.14 | 0.12 | 0.51 | 0.11 | 0.09 | 0.13 | 0.08 | 0.08 | 0.09 | 0.10 | 0.11 | 0.15 | 0.21 | Reactive |  |  |  |  |
| VLICGENTVSRNYATHS (Peptide Immunogen) [compound 10, overlapping synthetic peptide of TTV ORF1] | 0.09 | 0.10 | 0.11 | 0.11 | 0.11 | 0.13 | 1.09 | 0.09 | 0.12 | 0.07 | 0.07 | 0.11 | 0.06 | 0.09 | 0.12 | 0.12 | Reactive | 0.09 | 0.11 | 0.10 | optical density (OD) at 405 nm, EIA reactivity of human serum sample 4: 0.09 OD; optical density (OD) at 405 nm, EIA reactivity of human serum sample 5: 0.08 OD; optical density (OD) at 405 nm, EIA reactivity of human serum sample 6: 0.11 OD; optical density (OD) at 405 nm, EIA reactivity of human serum sample 7: 0.08 OD; optical density (OD) at 405 nm, EIA reactivity of human serum sample 9: 0.09 OD; optical density (OD) at 405 nm, EIA reactivity of human serum sample 11: 0.10 OD; optical density (OD) at 405 nm, EIA reactivity of human serum sample 18: 0.09 OD; optical density (OD) at 405 nm, EIA reactivity of human serum sample 36: 0.07 OD; optical density (OD) at 405 nm, EIA reactivity of human serum sample 48: 0.08 OD; optical density (OD) at 405 nm, EIA reactivity of human serum sample 98: 0.08 OD; optical density (OD) at 405 nm, EIA reactivity of human serum sample 110: 0.08 OD; optical density (OD) at 405 nm, EIA reactivity of human serum sample 155: 0.11 OD; optical density (OD) at 405 nm, EIA reactivity of human serum sample 157: 0.13 OD |
| KINTMPPFLDTELTAPS (Peptide Immunogen) [compound 18, overlapping synthetic peptide of TTV ORF1] | 0.09 | 0.09 | 0.15 | 0.29 | 0.07 | 0.13 | 0.62 | 0.08 | 0.28 | 0.07 | 0.13 | 0.12 | 0.04 | 0.08 | 0.19 | 0.18 | Reactive | 0.00 | 0.00 | 0.00 | optical density (OD) at 405 nm, EIA reactivity of human serum sample 4: 0.00 OD; optical density (OD) at 405 nm, EIA reactivity of human serum sample 5: 0.00 OD; optical density (OD) at 405 nm, EIA reactivity of human serum sample 6: 0.00 OD; optical density (OD) at 405 nm, EIA reactivity of human serum sample 7: 0.00 OD; optical density (OD) at 405 nm, EIA reactivity of human serum sample 9: 0.00 OD; optical density (OD) at 405 nm, EIA reactivity of human serum sample 11: 0.00 OD; optical density (OD) at 405 nm, EIA reactivity of human serum sample 18: 0.00 OD; optical density (OD) at 405 nm, EIA reactivity of human serum sample 36: 0.00 OD; optical density (OD) at 405 nm, EIA reactivity of human serum sample 48: 0.00 OD; optical density (OD) at 405 nm, EIA reactivity of human serum sample 98: 0.00 OD; optical density (OD) at 405 nm, EIA reactivity of human serum sample 110: 0.00 OD; optical density (OD) at 405 nm, EIA reactivity of human serum sample 155: 0.00 OD; optical density (OD) at 405 nm, EIA reactivity of human serum sample 157: 0.00 OD |
| EDGGAGGDADHGGAAGGP (Peptide Immunogen) [ORF2 peptide 19, overlapping synthetic peptide of TTV ORF2] |  |  |  |  |  |  |  |  |  |  |  |  |  |  |  |  |  |  |  |  | number of tested human sera reactive with the peptide (ORF2 peptide, EIA): Two of the tested human sera were reactive |
